Target: T1, native human TRPA1 receptors (Homo sapiens, UniProt O75762)
T1 construct: stably expressing native human TRPA1 receptors were used; endogenous in cells; host or cells: A549 human lung adenocarcinoma epithelial cell line
Experiment: PF-4840154 (1 μM)-induced Ca2+ fluorescence measurements in A549 cell line
Type: cell-based
Settings: for inhibition at 10 µM: 10 μM compound against 1 μM PF-4840154, A549 cells; for IC50: against PF-4840154 (1 μM)-evoked [Ca2+]i mobilization, A549 cells
Protocol: PF-4840154 (1 μM)-Induced Ca^2+ Fluorescence Measurements in A549 Cell Line
Human lung adenocarcinoma epithelial cell line (A549) stably expressing native human TRPA1 receptors were used. The cells were cultured in medium consisting of Eagle's minimal essential medium (EMEM) supplemented with 10% fetal bovine serum (FBS), penicillin (100 IU/ml), streptomycin ([…]), L-glutamine (2 mM), sodium bicarbonate (2.5 g/L) and HEPES (24 mM). Cells were kept at 37° C. in 5% CO2/humidified air. For the experiments the cells were seeded at a density of 16,000 cells/well into 96-well black, clear-bottom plates. After 24 hours incubation the cells were loaded with medium supplemented with 2.5 mM probenecid, 3 μM of the calcium sensitive fluorescent dye Fluo-4 AM and 0.01% pluronic acid, for 30 min at 37° C. Afterwards the loading solution was aspirated and 100 μl/well of assay buffer: Hank's Balanced Salt Solution (HBSS) supplemented with 2.5 mM probenecid and 500 μM Brilliant Black (Aldrich) was added. Stock solutions (100 mM) of ligands were made in Dimethyl Sulfoxide (DMSO) and stored at −20° C. Serial dilutions of ligands for experimental use were made in HBSS buffer. After placing both plates (cell culture and compound plate) into the FlexStation II (Molecular Device, Union City, Calif. 94587, US), fluorescence changes were measured. On-line additions were carried out in a volume of […]. To facilitate drug diffusion into the wells in antagonist type experiments, the studies were performed at 36.5° C. and three cycles of mixing (25 μl from each well moved up and down 3 times) were performed immediately after antagonist injection to the wells. All exemplified compounds were tested alone (to address residual agonistic activity) and against 1 μM of PF-4840154 to address inhibitory activity at the initial concentration of 10 μM. For selected examples the entire inhibitory concentration-response curves were constructed and the IC50 value calculated.
PF-4840154 (1 μM) increased [Ca^2+] in the vast majority (95%) of cultured cells which were thereby identified as TRPA1 expressing cells.

T1 sequence (O75762 whole entry): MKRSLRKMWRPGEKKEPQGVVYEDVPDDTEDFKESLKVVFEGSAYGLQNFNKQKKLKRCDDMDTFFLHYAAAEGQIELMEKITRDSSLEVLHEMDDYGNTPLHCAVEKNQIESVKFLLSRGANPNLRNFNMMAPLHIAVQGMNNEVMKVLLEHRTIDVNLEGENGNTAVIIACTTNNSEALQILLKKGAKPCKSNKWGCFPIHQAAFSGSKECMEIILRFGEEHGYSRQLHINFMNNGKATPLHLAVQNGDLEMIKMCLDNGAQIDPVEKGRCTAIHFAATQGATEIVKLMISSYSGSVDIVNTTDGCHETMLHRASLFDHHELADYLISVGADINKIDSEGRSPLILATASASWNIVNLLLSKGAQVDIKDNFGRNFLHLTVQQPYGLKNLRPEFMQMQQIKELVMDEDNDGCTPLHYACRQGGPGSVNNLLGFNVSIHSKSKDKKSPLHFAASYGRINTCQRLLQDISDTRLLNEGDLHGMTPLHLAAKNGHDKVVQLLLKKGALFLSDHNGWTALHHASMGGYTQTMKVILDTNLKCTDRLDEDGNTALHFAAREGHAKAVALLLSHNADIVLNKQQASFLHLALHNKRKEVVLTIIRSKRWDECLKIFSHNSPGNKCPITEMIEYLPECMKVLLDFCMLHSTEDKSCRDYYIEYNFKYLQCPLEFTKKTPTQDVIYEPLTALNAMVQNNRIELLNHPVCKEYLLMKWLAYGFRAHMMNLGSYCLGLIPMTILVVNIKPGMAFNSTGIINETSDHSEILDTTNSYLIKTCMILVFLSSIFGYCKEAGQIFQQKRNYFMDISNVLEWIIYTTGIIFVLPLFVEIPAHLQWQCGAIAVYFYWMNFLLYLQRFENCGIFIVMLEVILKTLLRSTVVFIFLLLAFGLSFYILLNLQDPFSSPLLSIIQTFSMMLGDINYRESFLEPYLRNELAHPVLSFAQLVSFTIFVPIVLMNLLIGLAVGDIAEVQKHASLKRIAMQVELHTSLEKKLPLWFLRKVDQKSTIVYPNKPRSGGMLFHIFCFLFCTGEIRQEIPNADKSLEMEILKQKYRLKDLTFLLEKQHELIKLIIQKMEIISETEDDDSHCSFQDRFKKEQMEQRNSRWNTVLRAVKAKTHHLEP

| SMILES | inhibition at 10 µM [%] | IC50 [nM] |
| --- | --- | --- |
| CCN(C1(C(=O)NCc2cc(-c3ccc(C(F)(F)F)cc3)nc(N3CCN(C4CCCCC4)CC3)c2)CC1)S(=O)(=O)c1ccc(Cl)s1 [Example 67, 1-[(5-chloro-2-thienyl)sulfonyl-ethyl-amino]-N-[[2-(4-cyclohexylpiperazin-1-yl)-6-[4-(trifluoromethyl)phenyl]-4-pyridyl]methyl]cyclopropanecarboxamide] | 95 | 590 |
| C=C(C(=O)NCc1cccc(-c2ccc(OC(F)(F)F)cc2)c1)N(CC)S(=O)(=O)c1ccc(Cl)s1 [Example 55, 2-[(5-chloro-2-thienyl)sulfonyl-ethyl-amino]-N-[[3-[4-(trifluoromethoxy)phenyl]phenyl]methyl]prop-2-enamide] | 100 | 31 |
| C=C(C(=O)NCc1ccnc(-c2ccc(OC(F)(F)F)cc2)c1)N(CC)S(=O)(=O)c1ccc(F)cc1 [Example 3, 2-[(4-fluorophenyl)sulfonyl-ethyl-amino]-N-[[2-[4-(trifluoromethoxy)phenyl]-4-pyridyl]methyl]prop-2-enamide] | 95 | 93 |
| C/C=C(/C(=O)NCc1ccnc(-c2ccc(OC(F)(F)F)cc2)c1)N(CC)S(=O)(=O)c1ccc(F)cc1 [Example 22, (Z)-2-[ethyl-(4-fluorophenyl)sulfonyl-amino]-N-[[2-[4-(trifluoromethoxy)phenyl]-4-pyridyl]methyl]but-2-enamide] | 97 | 246 |
| C=C(C(=O)NCc1cc(-c2ccc(OC(F)(F)F)cc2)nc(N2CCOCC2)c1)N(CC)S(=O)(=O)c1ccc(Cl)cc1 [Example 17, 2-[(4-chlorophenyl)sulfonyl-ethyl-amino]-N-[[2-morpholino-6-[4-(trifluoromethoxy)phenyl]-4-pyridyl]methyl]prop-2-enamide] | 98 | 120 |

Second part, the molecule after the results:

| inhibition at 10 µM [%] | IC50 [nM] | SMILES |
| --- | --- | --- |
| 100 | 423 | CCN(C1(C(=O)NCc2cc(-c3ccc(C(F)(F)F)cc3)ccn2)CC1)S(=O)(=O)c1ccc(F)cc1 [Example 60, 1-[ethyl-(4-fluorophenyl)sulfonyl-amino]-N-[[4-[4-(trifluoromethyl)phenyl]-2-pyridyl]methyl]cyclopropanecarboxamide] |
| 95 | 784 | CCN(C1(C(=O)NCc2cc(-c3ccc(OC(F)(F)F)cc3)nc(N3CCCC3)c2)CC1)S(=O)(=O)c1ccc(F)cc1 [Example 61, 1-[ethyl-(4-fluorophenyl)sulfonyl-amino]-N-[[2-pyrrolidin-1-yl-6-[4-(trifluoromethoxy)phenyl]-4-pyridyl]methyl]cyclopropanecarboxamide] |
| 100 | 160 | CN(C1(C(=O)NCc2cccc(-c3ccc(C(F)(F)F)cc3)c2)CC1)S(=O)(=O)c1ccc(F)cc1 [Example 58, 1-[(4-fluorophenyl)sulfonyl-methyl-amino]-N-[[3-[4-(trifluoromethyl)phenyl]phenyl]methyl]cyclopropanecarboxamide] |
| 96 | 113 | CCN(C1(C(=O)NCc2cccc(-c3ccc(OC(F)(F)F)cc3)c2)CC1)S(=O)(=O)c1ccc(Cl)s1 [Example 47, 1-[(5-chloro-2-thienyl)sulfonyl-ethyl-amino]-N-[[3-[4-(trifluoromethoxy)phenyl]phenyl]methyl]cyclopropanecarboxamide] |
| 98 | 95 | CCN(C1(C(=O)NCc2cc(OC(C)C)nc(-c3ccc(C(F)(F)F)cc3)c2)CC1)S(=O)(=O)c1ccc(F)cc1 [Example 49, 1-[ethyl-(4-fluorophenyl)sulfonyl-amino]-N-[[2-isopropoxy-6-[4-(trifluoromethyl)phenyl]-4-pyridyl]methyl]cyclopropanecarboxamide] |
| 100 | 76 | C=C(C(=O)NCc1cccc(-c2ccc(C(F)(F)F)cc2)c1)N(CC)S(=O)(=O)c1ccc(F)cc1 [Example 8, 2-[ethyl-(4-fluorophenyl)sulfonyl-amino]-N-[[3-[4-(trifluoromethyl)phenyl]phenyl]methyl]prop-2-enamide] |
